Source: patent publication US5523407A, “Quinoline derivatives, their production and use as ACAT inhibitors” (Takeda Chemical Industries, Ltd., priority 1989, dated 1996)

Tests used:
[1] = target: T1, Acyl-CoA: cholesterol acyltransferase (ACAT) (Rattus norvegicus, UniProt Q7TQM4); experiment: ACAT inhibitory activity (rat small intestine mucosal microsome; labeled cholesterol ester from [1-^14 C] oleoyl-CoA); format: biochemical, Sprague-Dawley rat; conditions: 10^-6 M test compound; read-out: ACAT Inhibition Rate
T1 construct: from the mucosal microsome fraction of the small intestine; from tissue; host or cells: small intestine mucosal microsomes, male 6-week old Sprague-Dawley rats fasted 20 hours
T1 sequence (Q7TQM4 1-524): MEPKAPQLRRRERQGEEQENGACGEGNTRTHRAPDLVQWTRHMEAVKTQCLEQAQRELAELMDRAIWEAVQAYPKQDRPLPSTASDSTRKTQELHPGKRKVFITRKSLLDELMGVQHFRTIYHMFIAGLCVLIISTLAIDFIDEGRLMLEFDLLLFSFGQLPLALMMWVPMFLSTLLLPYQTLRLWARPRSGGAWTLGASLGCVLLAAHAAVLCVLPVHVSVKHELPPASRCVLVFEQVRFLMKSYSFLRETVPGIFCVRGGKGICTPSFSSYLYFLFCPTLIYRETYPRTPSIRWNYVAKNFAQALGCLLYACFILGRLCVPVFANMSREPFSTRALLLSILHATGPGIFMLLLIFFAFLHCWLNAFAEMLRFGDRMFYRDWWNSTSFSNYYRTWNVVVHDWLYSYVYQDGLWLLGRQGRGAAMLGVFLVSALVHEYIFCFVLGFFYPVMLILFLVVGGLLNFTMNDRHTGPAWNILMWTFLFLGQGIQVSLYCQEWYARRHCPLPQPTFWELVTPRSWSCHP
Description: 1. Acyl-CoA: cholesterol acyltransferase (ACAT) inhibitory activity
The enzyme ACAT was prepared by the method of Heider et al. described in Journal of Lipid Research, Vol. 24, page 1127 (1982), from the mucosal microsome fraction of the small intestine of male, 6-week old Sprague-Dawley rats which had been fasted for 20 hours.
ACAT activity was calculated by the method of Helgerud et. al. described in Journal of Lipid Research, Vol. 22, page 271 (1981), namely, by measuring the amount of the labeled cholesterol ester produced from [1-^14 C] oleoyl-CoA and endogenous cholesterol.
Inhibition rates (%) of the production of the labeled cholesterol ester wherein 10-^6 M of test compounds were added are shown as an index of ACAT inhibitory activity in Table 1.

[2] = tested on: lipoperoxide production in homogenized brain; experiment: Lipoperoxide inhibitory activity (natural oxidation of homogenized rat brain, malonodialdehyde by TBA method); format: biochemical, Sprague-Dawley rat; conditions: for Lipoperoxide inhibition rate: 10^-5 M test compound; for IC50: read-out: Lipoperoxide Inhibitory Activity, 50% inhibitory concentration (IC50)
Description: 2. Lipoperoxide inhibitory activity
From 10-week, old, male Sprague-Dawely rats which were fed CE-2 diet (Nippon Claire) and water, their brains were taken out by the method of Stocks disclosed in Clinical Science Molecular Medicine, Vol. 78, page 215 (1974), to form lipoperoxide by natural oxidation. The compound (I) in an amount of 10-^3 moles was dissolved in ethanol, and the resultant (10 μl) was added to each homogenized brain. On the other hand, ethanol from which the compound (I) was removed was added to a control group of homogenized brain. A malonodialdehyde was measured by the (TBA) method disclosed in Okawa et al., Analysis Biochemistry, Vol. 95, page 351 (1979). The produced lipoperoxide was calculated based on the measured value of malonodialdehyde.

| Structure (SMILES) | inhibition at 1 µM [1] | IC50 [2] | Lipoperoxide inhibition rate [2] |
| --- | --- | --- | --- |
| Cc1cc(C)c2ncc(NC(=O)c3cc(C(C)(C)C)c(O)c(C(C)(C)C)c3)c(-c3ccccc3Cl)c2c1 [Example 1, 4-(2-chlorophenyl)-3-(3,5-di-tert-butyl-4-hydroxybenzamido)-6,8-dimethylquinoline] | 82.2% | – | – |
| COc1ccc(-c2c(NC(=O)c3cc(C(C)(C)C)c(O)c(C(C)(C)C)c3)cnc3ccc(Cl)cc23)cc1OC [Example 3, 3-(3,5-di-tert-butyl-4-hydroxybenzamido)-6-chloro-4-(3,4-dimethoxyphenyl)quinoline] | 83.4% | – | – |
| COc1ccc(-c2c(NC(=O)c3cc(C(C)(C)C)c(O)c(C(C)(C)C)c3)cnc3ccc(Cl)cc23)c(OC)c1OC [Example 4, 3-(3,5-di-tert-butyl-4-hydroxybenzamido)-6-chloro-4-(2,3,4-trimethoxyphenyl) quinoline] | 84.8% | – | – |
| CC(=O)Oc1c(C(C)C)cc(C(=O)Nc2cnc3c(C)cc(C)cc3c2-c2ccccc2Cl)cc1C(C)C [Example 6, 3-(4-acetoxy-3,5-diisopropylbenzamido)-4-(2-chlorophenyl)-6,8-dimethylquinoline] | 79.3% | – | – |
| CC(=O)Oc1c(C)cc(C(=O)Nc2cnc3c(C)cc(C)cc3c2-c2ccccc2Cl)cc1C [Example 8, 3-(4-acetoxy-3,5-dimethylbenzamido)-4-(2-chlorophenyl)-6,8-dimethylquinoline] | 62% | – | – |
| Cc1cc(C)c2ncc(NC(=O)c3cc(C)c(O)c(C)c3C)c(-c3ccccc3Cl)c2c1 [Example 11, 4-(2-chlorophenyl)-3-(4-hydroxy-2,3,5-trimethylbenzamido)-6,8-dimethylquinoline] | 94.3% | – | – |
| Cc1cc(C)c2ncc(NC(=O)C3(C)CCc4c(C)c(O)c(C)c(C)c4O3)c(-c3ccccc3Cl)c2c1 (stereo not drawn) [Example 12, 4-(2-chlorophenyl)-3-(6-hydroxy-2,5,7,8-tetramethylchroman-2-ylcarbonyl)amino-6,8-dimethylquinoline] | 41.2% | – | 98.5% |
| CC(=O)Oc1c(C)c(C)c2c(c1C)CC(C)(C(=O)Nc1cnc3c(C)cc(C)cc3c1-c1ccccc1Cl)O2 (stereo not drawn) [Example 13, 3-(5-acetoxy-2,3-dihydro-2,4,6,7-tetramethylbenzofuran-2-ylcarbonyl)amino-4-(2-chlorophenyl)-6,8-dimethylquinoline] | 64.7% | – | 71.6% |
| Cc1cc(C)c2ncc(NC(=O)C3(C)Cc4c(C)c(O)c(C)c(C)c4O3)c(-c3ccccc3Cl)c2c1 (stereo not drawn) [Example 14, 4-(2-chlorophenyl)-3-(2,3-dihydro-5-hydroxy-2,4,6,7-tetramethylbenzofuran-2-ylcarbonyl)amino-6,8-dimethylquinoline] | 83.1% | 370 nM | 98.4% |
| CC1=C(C(=O)Nc2cnc3c(C)cc(C)cc3c2-c2ccccc2Cl)Sc2ccccc2N1 [Example 15, 4-(2-chlorophenyl)-6,8-dimethyl-3-(3-methyl-4H-1,4-benzothiazin-2-ylcarbonyl) aminoquinoline] | 76% | – | – |
| CC1=C(C(=O)Nc2cnc3c(C)cc(C)cc3c2-c2ccccc2Cl)Sc2cc(F)ccc2N1 [Example 16, 4-(2-chlorophenyl)-3-(7-fluoro-3-methyl-4H-1,4-benzothiazin-2-ylcarbonyl)amino-6,8-dimethylquinoline] | 72.6% | 1200 nM | 100% |
| Cc1cc(C)c2ncc(NC(=O)Cc3ccc(F)cc3F)c(-c3ccccc3Cl)c2c1 [Example 18, 4-(2-chlorophenyl)-3-(2,4-difluorophenylacetylamino)-6,8-dimethylquinoline] | 94% | – | – |
| COc1ccc(C=CC(=O)Nc2cnc3cc(C)c(C)cc3c2-c2ccccc2Cl)cc1OC [Example 22, 4-(2-chlorophenyl)-3-(3,4-dimethoxycinnamoylamino)-6,7-di-methylquinoline] | 92.6% | – | – |
| COC(=O)c1ccc(C=CC(=O)Nc2cnc3c(C)cc(C)cc3c2-c2ccccc2Cl)cc1 [Example 23, 4-(2-chlorophenyl)-3-(4-methoxycarbonylcinnamoylamino)-6,8-dimethylquinoline] | 65.9% | – | – |
| COc1cccc(C=CC(=O)Nc2cnc3c(C)cc(C)cc3c2-c2ccccc2Cl)c1OC [Example 24, 4-(2-chlorophenyl)-3-(2,3-dimethoxycinnamoylamino)-6,8-di-methylquinoline] | 69.4% | – | – |
| COc1cc(C=CC(=O)Nc2cnc3c(C)cc(C)cc3c2-c2ccccc2Cl)cc(OC)c1OC(C)=O [Example 27, 3-(4-acetoxy-3,5-dimethoxylcinnamoylamino)-4-(2-chlorophenyl)-6,8-dimethylquinoline] | 83.7% | – | 90.2% |

Now from value to compound, other results behind:

| inhibition at 1 µM [1] | IC50 [2] | Structure (SMILES) | Lipoperoxide inhibition rate [2] |
| --- | --- | --- | --- |
| 73.7% | – | COc1ccc(OC)c(C=CC(=O)Nc2cnc3c(C)cc(C)cc3c2-c2ccccc2Cl)c1 [Example 25, 4-(2-chlorophenyl)-3-(2,5-dimethoxycinnamoylamino)-6,8-dimethylquinoline] | – |
| 66.6% | 400 nM | Cc1cc(C)c2ncc(NC(=O)C=Cc3cccc(O)c3O)c(-c3ccccc3Cl)c2c1 [Example 32, 4-(2-chlorophenyl)-3-(2,3-dihydroxycinnamoylamino)-6,8-dimethylquinoline] | 99.7% |
| 81.7% | 1300 nM | COc1cc(C=CC(=O)Nc2cnc3c(C)cc(C)cc3c2-c2ccccc2Cl)cc(OC)c1O [Example 33, 4-(2-chlorophenyl)-3-(4-hydroxy-3,5-dimethoxycinnamonylamino)-6,8-dimethylquinoline] | 96.1% |
| 86.4% | – | Cc1cc(C)c2ncc(NC(=O)C=Cc3cc(C)c(O)c(C)c3)c(-c3ccccc3Cl)c2c1 [Example 34, 4-(2-chlorophenyl)-3-(4-hydroxy-3,5-dimethylcinnamoylamino)-6,8-dimethylquinoline] | 62.1% |
| 81.7% | 810 nM | Cc1cc(C)c2ncc(NC(=O)C=Cc3cc(C)c(O)c(C)c3C)c(-c3ccccc3Cl)c2c1 [Example 35, 4-(2-chlorophenyl)-3-(4-hydroxy-2,3,-trimethylcinnamoylamino)-6,8-dimethylquinoline] | 84.9% |
| 63% | – | COc1ccc(C=CC(=O)Nc2c(-c3ccccc3Cl)c3cc(C)cc(C)c3n(C)c2=O)cc1OC [Example 36, 4-(2-chlorophenyl)-3-(3,4-dimethoxycinnamoylamino)-1,6,8-trimethyl-2(1H)-quinolone] | – |
| 78.2% | – | Cc1cc(C)c2ncc(NC(=O)C=Cc3ccc(O)c(O)c3)c(-c3ccccc3Cl)c2c1 [Example 38, 4-(2-chlorophenyl)-3-(3,4-dihydroxycinnamoylamino)-6,8-dimethylquinoline] | – |
| 97% | – | O=C(C=Cc1ccc(O)c(O)c1)Nc1cnc2ccc(Cl)cc2c1-c1ccccc1Cl [Example 43, 6-chloro-4-(2-chlorophenyl)-3-(3,4-dihydroxycinnamoylamino)quinoline] | – |
| 72.6% | – | COc1ccc(C=CC(=O)Nc2cnc3c(C)cc(C)cc3c2-c2ccccc2Cl)c(OC)c1OC [Example 46, 4-(2-chlorophenyl)-6,8-dimethyl-3-(2,3,4-trimethoxycinnamoylamino) quinoline] | – |
